Test results from patent US20120034613A1, “Apparatus and Method for Testing Relationships Between Gene Expression and Physical Appearance of Skin” (NSE Products, Inc., priority 2010, published 2012).

Tested on: EpidermFT™ Skin Model (EFT-400) full thickness skin cultures
Test: Affymetrix GeneChip HG U133 Plus 2.0 microarray global gene expression, agent-exposed vs untreated skin cultures
Assay type: cell-based, human
Conditions: for Direction / Fold change: Salicin 0.5%
[1] = Salicin 0.5% vs Untreated Control, 24 hr

## OCc1ccccc1O[C@@H]1O[C@H](CO)[C@@H](O)[C@H](O)[C@H]1O [Salicin, 2-(Hydroxymethyl)phenyl β-D-glucospyranoside]
1554602_at RBM8A, 24 hr
  Direction: up
  Fold change: 2.141
1555270_a_at WFS1, 24 hr
  Direction: up
  Fold change: 2.096
1559477_s_at MEIS1, 24 hr
  Direction: up
  Fold change: 2.098
1561042_at ITGB1, 24 hr
  Direction: up
  Fold change: 2.151
[1]
  Direction ABCD3 (202850_at): down
  Direction ABCG4 (207593_at): down
  Direction ACACA (212186_at): down
  Direction ACAD9 (224160_s_at): down
  Direction ACOX3 (204241_at): down
  Direction ADAMTSL4 (226071_at): down
  Direction ADARB1 (203865_s_at): down
  Direction AHNAK (211986_at): down
  Direction AIF1L (223075_s_at): down
  Direction AK1 (202587_s_at): down
  Direction AK3L1 /// AK3L2 (204347_at): down
  Direction ALDH5A1 (203609_s_at): down
  Direction ALOX12 (207206_s_at): down
  Direction AMACR (209426_s_at): down
  Direction AMOTL2 (203002_at): down
  Direction ANK3 (207950_s_at): down
  Direction APPL2 (218218_at): down
  Direction AQP3 (203747_at): down
  Direction ARHGAP27 (225618_at): down
  Direction ARL17 /// ARL17P1 (1555964_at): down
  Direction ARPC1A (200950_at): down
  Direction ASAP3 (222236_s_at): down
  Direction ATP2B4 (212136_at): down
  Direction ATXN3 (205416_s_at): down
  Direction BAIAP2 (205293_x_at): down
  Direction BCL11A (1559078_at): down
  Direction BCL11B (222895_s_at): down
  Direction BICD2 (1553021_s_at): down
  Direction BLCAP (201032_at): down
  Direction C1orf46 (216718_at): down
  Direction C1orf71 (225551_at): down
  Direction C1orf97 (224443_at): down
  Direction C2orf7 (223312_at): down
  Direction C4orf3 (224605_at): down
  Direction C6orf105 (215100_at): down
  Direction C12orf29 (228378_at): down
  Direction C15orf52 (227272_at): down
  Direction C17orf67 (236863_at): down
  Direction C20orf177 (225313_at): down
  Direction CALM1 /// CALM2 /// CALM3 (200653_s_at): down
  Direction CALM1 /// CALM2 /// CALM3 (209563_x_at): down
  Direction CAT (211922_s_at): down
  Direction CENPT (218148_at): down
  Direction CEP76 (52285_f_at): down
  Direction CERK (218421_at): down
  Direction CKB (200884_at): down
  Direction CLCN5 (232127_at): down
  Direction CLDN7 (202790_at): down
  Direction CLIP1 (1558924_s_at): down
  Direction CLN8 (229958_at): down
  Direction CNDP2 (217752_s_at): down
  Direction CNTN1 (211203_s_at): down
  Direction CSNK2A2 (203575_at): down
  Direction CTAGE4 (215549_x_at): down
  Direction CXCL12 (203666_at): down
  Direction CYB5R1 (202263_at): down
  Direction CYCS (244546_at): down
  Direction DBI (211070_x_at): down
  Direction DDR1 (1007_s_at): down
  Direction DDX50 (1568815_a_at): down
  Direction DHRS4 /// DHRS4L2 (218021_at): down
  Direction DMD (203881_s_at): down
  Direction DOPEY2 (205248_at): down
  Direction ELOVL3 (234513_at): down
  Direction EPCAM (201839_s_at): down
  Direction EPHB4 (202894_at): down
  Direction EPHB6 (204718_at): down
  Direction ERI2 (213365_at): down
  Direction F2RL1 (206429_at): down
  Direction FAM33A (225684_at): down
  Direction FAR1 (224865_at): down
  Direction FBXO3 (229955_at): down
  Direction FBXO3 (238686_at): down
  Direction FBXO9 (212991_at): down
  Direction FBXO9 (1559094_at): down
  Direction FIGNL1 (222843_at): down
  Direction FKBP1B (206857_s_at): down
  Direction FKBPL (219187_at): down
  Direction FRAG1 (41858_at): down
  Direction FUCA1 (202838_at): down
  Direction FUT2 (210608_s_at): down
  Direction GAB1 (225998_at): down
  Direction GAS7 (202192_s_at): down
  Direction GDAP1 (226269_at): down
  Direction GNG4 (205184_at): down
  Direction GPR1 (214605_x_at): down
  Direction GPR137B (204137_at): down
  Direction GSN (200696_s_at): down
  Direction HES5 (239230_at): down
  Direction HIGD1A (217845_x_at): down
  Direction HN1 (222396_at): down
  Direction HN1L (212115_at): down
  Direction HSDL2 (209512_at): down
  Direction ID2 (201565_s_at): down
  Direction IDH2 (210045_at): down
  Direction IL22RA1 (220056_at): down
  Direction INPP5D (203332_s_at): down
  Direction ITGA3 (201474_s_at): down
  Direction JAG1 (209099_x_at): down
  Direction JAG1 (216268_s_at): down
  Direction JMJD7 /// JMJD7-PLA2G4B /// PLA2G4B (222256_s_at): down
  Direction KCNK7 (224055_x_at): down
  Direction KCTD15 (222668_at): down
  Direction KIF1B (209234_at): down
  Direction KIF1B (225878_at): down
  Direction KLK1 (216699_s_at): down
  Direction KRT5 (201820_at): down
  Direction KRT6A (209125_at): down
  Direction KRT10 (207023_x_at): down
  Direction KRTCAP3 (235148_at): down
  Direction LMNA (212089_at): down
  Direction LMNA (1554600_s_at): down
  Direction LMNB1 (203276_at): down
  Direction LOC284837 (1563088_a_at): down
  Direction LOC286440 (209733_at): down
  Direction LOC400027 (226413_at): down
  Direction LOC401233 (1558882_at): down
  Direction LOC648245 (227739_at): down
  Direction LOC652968 (233528_s_at): down
  Direction LOC727820 (227384_s_at): down
  Direction LOC100128443 /// MAST4 (210958_s_at): down
  Direction LOC100128822 (235174_s_at): down
  Direction LOC100130837 (242255_at): down
  Direction LOC100131262 (1558152_at): down
  Direction LOC100131851 /// LOC100134497 /// LOC401002 /// LOC646674 /// SSBP3 (222482_at): down
  Direction LOC100133772 /// SLC16A5 (206600_s_at): down
  Direction LOC100134937 (229685_at): down
  Direction LPHN1 (47560_at): down
  Direction LY75 (205668_at): down
  Direction LYSMD4 (228954_at): down
  Direction MAFB (218559_s_at): down
  Direction MAPRE2 (202501_at): down
  Direction MEGF9 (212831_at): down
  Direction MFAP5 (213764_s_at): down
  Direction MIB2 (226644_at): down
  Direction MPP7 (238451_at): down
  Direction MTHFR (226929_at): down
  Direction MTMR1 (214975_s_at): down
  Direction MUC1 (213693_s_at): down
  Direction MYO18A /// TIAF1 (202039_at): down
  Direction NBEAL2 (212443_at): down
  Direction NCF2 (209949_at): down
  Direction NCRNA00086 (238697_at): down
  Direction PAIP1 (208051_s_at): down
  Direction PAIP2B (221868_at): down
  Direction PAWR (204005_s_at): down
  Direction PAWR (229515_at): down
  Direction PDIK1L (227255_at): down
  Direction PERP (217744_s_at): down
  Direction PIGW (1558292_s_at): down
  Direction PLEKHA2 (225136_at): down
  Direction PLS3 (201215_at): down
  Direction PNMA2 (209598_at): down
  Direction POLE2 (205909_at): down
  Direction POLH (231115_at): down
  Direction POLR3B (219459_at): down
  Direction POU3F1 (208345_s_at): down
  Direction PPAP2C (209529_at): down
  Direction PPP1CB (201409_s_at): down
  Direction PPP2CA (208652_at): down
  Direction PRDX2 (39729_at): down
  Direction PRKX (204061_at): down
  Direction PTCH1 (209815_at): down
  Direction PTGFR (1555097_a_at): down
  Direction PVRL1 (225211_at): down
  Direction RAB7B (1553982_a_at): down
  Direction RAPGEFL1 (218657_at): down
  Direction RHOV (241990_at): down
  Direction RICS (203431_s_at): down
  Direction RNF170 (226104_at): down
  Direction RORA (235567_at): down
  Direction RPS6KA5 (204633_s_at): down
  Direction RPS6KB2 (203777_s_at): down
  Direction SCRN3 (222849_s_at): down
  Direction SDCCAG8 (243963_at): down
  Direction SEMA4D (203528_at): down
  Direction SERPINB1 (213572_s_at): down
  Direction SETBP1 (227478_at): down
  Direction SHROOM2 (204967_at): down
  Direction SLC5A3 (212944_at): down
  Direction SLC24A3 (219090_at): down
  Direction SLC45A4 (225598_at): down
  Direction SLCO3A1 (219229_at): down
  Direction SMAP2 (225282_at): down
  Direction SMCR7 (235896_s_at): down
  Direction SNX21 (1553960_at): down
  Direction SNX24 (218705_s_at): down
  Direction SORD (201563_at): down
  Direction ST8SIA4 (230836_at): down
  Direction STK24 (208854_s_at): down
  Direction SYNGR2 (201079_at): down
  Direction TANC1 (225308_s_at): down
  Direction TCEA3 (226388_at): down
  Direction TCHP (223455_at): down
  Direction TGOLN2 (1554608_at): down
  Direction THBD (203888_at): down
  Direction TIMM22 (219184_x_at): down
  Direction TMC5 (222904_s_at): down
  Direction TMEM19 (226860_at): down
  Direction TMEM45A (219410_at): down
  Direction TMEM50B (225182_at): down
  Direction TMEM80 (65630_at): down
  Direction TP53I3 (210609_s_at): down
  Direction TRAF3IP2 (202987_at): down
  Direction TRIM2 (202342_s_at): down
  Direction TTC30B (1554588_a_at): down
  Direction VPS4B (218171_at): down
  Direction WNK1 (39313_at): down
  Direction WNK1 (211993_at): down
  Direction ZBTB1 (1557036_at): down
  Direction ZDHHC21 (241946_at): down
  Direction ZFYVE21 (219929_s_at): down
  Direction ZHX1 (223213_s_at): down
  Direction ZHX1 (223214_s_at): down
  Direction ZNF85 (1554445_at): down
  Direction ZNF561 (235200_at): down
  Direction ZNF589 (219968_at): down
  Direction ZNF823 (229732_at): down
Salicin 0.5% vs Untreated Control, 24 hr treatment
  Direction ABHD2 (205566_at): up
